According to US8106096B2, “Compositions and methods for treatment of optic nerve diseases” (University of Maryland, Baltimore, priority 2008, dated 2012):
Entries after “also recorded” stand apart in the source; their conditions may differ.

Columns and labels:
[1] = tested on: optic nerve (ON) edema; assay: ON edema after rAION by direct fundus observation in the living animal; assay type: in vivo, rat; conditions: post-infarct administration (systemic and intravitreal), first 3 days post-induction; 1-3 days following rAION
Text: PGJ2-treated animals have 72.4% of the number of naïve RGCs compared with 34.3 for vehicle treated animals (black bar, FIG. 2).

[2] = tested on: retinal ganglion cells (RGC); assay: Stereological analysis of RGC numbers after rAION (ON stroke); assay type: in vivo, rat
Procedure: Stereological analysis of RGC numbers in naïve and rAION induced rat retinae treated with either PGJ2 or Vehicle (PBS). Animals were injected IV 1Xd for 3 days with either 100 mg/kg PGJ2 or PBS-vehicle. Animals were euthanized and retinae analyzed 30 days post-rAION induction. Average numbers based on 4 retinae/group; RGC stereology derived from Brn3a (+) RGC immunostaining.
Statistical analysis of 15-deoxy delta (12,14) PGJ2 administration to rats after optic nerve (ON) stroke. […] The ordinate represents the number of retinal ganglion cells in each retina. The abscissa represents the number of fields of cells counted to reach a statistically valid number as determined by the field of stereology. The green line represents the typical number of retinal ganglion cells in the untreated (naïve; no stroke) rat retina. The response of rat retina and optic nerve to vehicle treatment is shown in yellow. The response of PGJ2 treated animals is shown in Blue.
rAION-associated cell loss is analyzed using stereological analysis.
Rats were used for this experiment and ON stroke was administered to a 75% predicted loss of RGCs by the method of Bernstein et al., 2003, supra. RGC's were counted in each retina in the untreated (naïve; no stroke) and rats with rAION treated with PGJ2.

[3] = tested on: ED-1(+) extrinsic macrophages; assay: Extrinsic macrophage (ED-1(+)) recruitment into ON after rAION induction; assay type: in vivo, rodent
Text: The present inventor has evaluated the location of early ON-macrophage activity following rAION induction, using antibodies for both general cellular inflammation (IBA-1) and extrinsic macrophages (detected by antibody to ED-1). […] Few, if any extrinsic macrophages are present in normal uninfarcted ON (results not shown). Following rAION induction, ED-1(+) extrinsic macrophages enter the ON and cluster in the primary ischemic lesion site immediately behind the retina/ON junction. Little extrinsic macrophage infiltration occurs >250 microns post-ON/retina junction. […] Control (vehicle treated animals) show a similar pattern (data not shown). […] Extrinsic macrophages extend beyond the initial lesion site, even during early axonal degeneration occurring 6 days post-induction. Thus, it is possible to administer intraventricular GM-CSF to recruit extrinsic macrophages into the ON following rAION, and determine whether the macrophage recruitment approach is useful to enhancing ON-axonal repair and regeneration following ON infarct.

Molecule | ON edema [1] | RGC survival ([2]; 30 days post-rAION induction) | number of RGCs relative to naïve RGCs ([2]; rat rAION, IV 1Xd for 3 days, 100 mg/kg, 30 days post-rAION induction, Brn3a(+) RGC stereology) | preservation of the neurons whose axons comprise the optic nerve ([2]; rats, ON stroke to a 75% predicted loss of RGCs, PGJ2 treatment after stroke) | numbers of ED-1(+) cells in ON ([3]; 1 ug stereotactically injected into the superior colliculus, 6 days post-induction, vehicle controls show a similar pattern) | recruitment of ED-1(+) cells in rAION-induced ONs ([3]; intraventricular injection, data not shown) | ability to recruit extrinsic macrophages ([3]; rAION, IBA-1 and ED-1 antibodies, data not shown)
CCCCC/C=C/C=C1/C(=O)C=C[C@@H]1C/C=C\CCCC(=O)O [PGJ2, 15 deoxy delta 12,14 prostaglandin J2] | reduced gross ON edema; also recorded: reduces ON edema | increased RGC survival | 72.4% | 35-50% | – | – | –
GM-CSF: Granulocyte-Macrophage Colony Stimulating Factor; directly activates macrophages and recruits extrinsic macrophages | – | – | – | – | decreased numbers of ED-1(+) cells | significantly enhanced recruitment of ED-1(+) cells | has the ability to recruit extrinsic macrophages
